In US7049415B2 (priority 2002, dated 2006):

System: HIV-1
Conditions: cMAGI/MAGI cells; for IC50: 50% reduction in infectious virus titer; for IC90: 90% reduction in infectious virus titer
Description: The number of stained nuclei can thus be interpreted as equal to the number of infectious virions in the challenge inoculum if there is only one round of infection prior to staining.

Substance	IC50 [µg/mL]	IC90 [µg/mL]
Pegylated T20 with PEG10K-butanoaldehyde [Example 2]	0.266	2.536
Pegylated T20 with mPEG10k-propionaldehyde [Example 3]	0.261	3.074
